According to EP1043318A1 (priority 1997, dated 1999):

Key:
[1] = system: herpes simplex type 1 (VPG-1/Leningrad/248/88); assay: Antiviral activity on herpes virus, cytopathic effect in Vero cell culture; type: cell-based, herpes simplex virus; details: unchanged Vero cells after 36 hours
C. trachomatis D323 = assay: Activity on Chlamydia trachomatis in infected cell culture; type: cell-based; details: for No. of unchanged cells: 100 viewing fields, cell control 9.000, infected cells 6.000
M. tuberculosis 61 (S) = assay: Activity on pathogenic mycobacteria, growth on Lewenstein-Jensen medium (sensitive strain); type: cell-based; details: strain sensitive to control preparations; concentration of the preparation 50.0 g/l (table title); incubated 30 days
[2] = system: primary culture of humans lymphocytes; assay: Interferon-inducing activity in primary lymphocyte culture (immunoenzyme determination of INF); type: cell-based, human
Acute toxicity in mice = assay: Acute toxicity in mice; parameters: species or system non-linebred white mice; details: mouse, in vivo, iv, by mouth or intravenously, 14 days observation
Description: Acute toxicity was determined on non-linebred white mice weighing 18-20 g. The claimed compounds were prepared in a range of concentrations: 1500, 700, 500, 100, 20 and 5 µg/kg. Five animals were used to study each specific concentration of a compound. The preparation was administered once a day by mouth of intravenously. The observation period was 14 days On days 1, 8 and 15 the animals in every group were weighed. For a control we used animals who received the emulsion without the test compounds. All animals, both those that died in the course of the experiment and those that survived to the end of the experiment, were opened to allow macroscopic examination of internal organs. In the course of the experiment no loss of weight was observed or any change in behavior or external appearance, nor was there any loss of life. Based on the results of the macroscopic examination of internal organs of the animals in the test and the control groups, no pathological findings were made, [text missing]

Row | Compound | number of cells in 100 fields ([1]; 10 mg/l) | number of cells in 100 fields ([1]; 50 mg/l) | number of cells in 100 fields ([1]; 100 mg/l) | M. tuberculosis 61S growth (M. tuberculosis 61 (S)) | Concentration of INF in induction mixture after 24 hrs. of incubation ([2]; 1 mg/l of the preparation) | Concentration of INF in induction mixture after 24 hrs. of incubation ([2]; 10 mg/l of the preparation) | Concentration of INF in induction mixture after 24 hrs. of incubation ([2]; 100 mg/l of the preparation) | further results
1 | 2-hydroxyethylammonium salt of 5,5'-(p-nitrobenzylidene)bisbarbituric acid [III] | 2000 | 3000 | 5500 | – | – | – | – | percent protection of the cells against infection (C. trachomatis D323; 10 mg/l): 60%; No. of unchanged cells (C. trachomatis D323; 10 mg/l): 7800; percent protection of the cells against infection (C. trachomatis D323; 100 mg/l): 65%; No. of unchanged cells (C. trachomatis D323; 100 mg/l): 7950
2 | [H]/N=C(/N)N[C@H]1[C@H](O)[C@@H](O)[C@H](O[C@@H]2O[C@@H](C)[C@](O)(C=O)[C@H]2O[C@@H]2O[C@@H](CO)[C@H](O)[C@@H](O)[C@@H]2NC)[C@@H](N/C(N)=N\[H])[C@@H]1O [Streptomycin] | – | – | – | complete suppression of growth | – | – | – | –
3 | NNC(=O)c1ccncc1 [Isoniazid] | – | – | – | complete suppression of growth | – | – | – | –
4 | O=C1NC(=S)NC(=O)C1C(c1ccc([N+](=O)[O-])cc1)C1C(=O)NC(=S)NC1=O [X, 5,5'-(p-nitrobenzylidene)bis (2-thiobarbituric) acid] | 10000 | 10000 | 3000 | complete suppression of growth | 4.0 ± 0.5 IU/3·10^4 lymph/ml | 23 ± 1.0 IU/3·10^4 lymph/ml | 47 ± 0.8 IU/3·10^4 lymph/ml | LD50 at 336 h (Acute toxicity in mice): 1000 mg/kg
5 | pyridine salt of 5,5'-(p-chlorobenzylidene)bis(2-thiobarbituric) acid [IV] | 10000 | 2000 | 4000 | – | 1,3 ± 0,5 IU/3·10^4 lymph/ml | 3,7 ± 1,0 IU/3·10^4 lymph/ml | 23,0 ± 1,7 IU/3·10^4 lymph/ml | –
6 | O=C1NC(=S)NC(=O)C1C(c1ccc(Cl)cc1)C1C(=O)NC(=S)NC1=O [IX] | 10000 | 10000 | 3000 | – | 5,6 ± 0,8 IU/3·10^4 lymph/ml | 21,0 ± 0,9 IU/3·10^4 lymph/ml | 35,2 ± 1,6 IU/3·10^4 lymph/ml | –
7 | pyridine salt of 5,5'-(p-bromobenzylidene)bisbarbituric acid [VIII] | 10000 | 2500 | 5000 | – | 0,9 ± 0,2 IU/3·10^4 lymph/ml | 1,2 ± 0,4 IU/3·10^4 lymph/ml | 3,8 ± 0,4 IU/3·10^4 lymph/ml | –
8 | Nc1nc2c(ncn2COCCO)c(=O)[nH]1 [Acyclovir, reference compound] | 8000 | – | – | – | – | – | – | –
9 | CC[C@@H](CO)NCCN[C@@H](CC)CO [Ethambutol] | – | – | – | complete suppression of growth | – | – | – | –
